From ChEMBL document CHEMBL4196200 (J Med Chem, 2018)
pEC50, pIC50, pKi: −log10 of the molar value.

What was measured:
[1] = biological target: T1, Oxytocin receptor (Homo sapiens, UniProt P30559); test: Antagonist activity at human OTR expressed in HEK cells assessed as inhibition of OT-induced intracellular calcium flux incubated for 45 mins by Indo1-AM dye based fluorescence assay; format: functional, cell-based
T1 sequence (P30559 whole entry): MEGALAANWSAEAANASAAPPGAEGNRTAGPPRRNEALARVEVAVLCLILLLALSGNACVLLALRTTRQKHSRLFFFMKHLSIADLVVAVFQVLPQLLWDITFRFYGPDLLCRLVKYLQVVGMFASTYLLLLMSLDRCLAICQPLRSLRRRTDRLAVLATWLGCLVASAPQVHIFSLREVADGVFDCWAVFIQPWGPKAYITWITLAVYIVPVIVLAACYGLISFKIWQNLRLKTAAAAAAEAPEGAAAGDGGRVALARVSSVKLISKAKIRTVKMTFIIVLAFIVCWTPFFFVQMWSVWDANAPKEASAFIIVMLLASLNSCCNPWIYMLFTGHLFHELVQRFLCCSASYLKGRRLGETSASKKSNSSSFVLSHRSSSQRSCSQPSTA

[2] = biological target: T2, Vasopressin V1a receptor (Homo sapiens, UniProt P37288); test: Displacement of DY647 from SNAP-tagged V1A receptor (unknown origin) expressed in HEK293 cells by TR-FRET assay; format: cell-based
Target sequence in this assay (P37288 whole entry): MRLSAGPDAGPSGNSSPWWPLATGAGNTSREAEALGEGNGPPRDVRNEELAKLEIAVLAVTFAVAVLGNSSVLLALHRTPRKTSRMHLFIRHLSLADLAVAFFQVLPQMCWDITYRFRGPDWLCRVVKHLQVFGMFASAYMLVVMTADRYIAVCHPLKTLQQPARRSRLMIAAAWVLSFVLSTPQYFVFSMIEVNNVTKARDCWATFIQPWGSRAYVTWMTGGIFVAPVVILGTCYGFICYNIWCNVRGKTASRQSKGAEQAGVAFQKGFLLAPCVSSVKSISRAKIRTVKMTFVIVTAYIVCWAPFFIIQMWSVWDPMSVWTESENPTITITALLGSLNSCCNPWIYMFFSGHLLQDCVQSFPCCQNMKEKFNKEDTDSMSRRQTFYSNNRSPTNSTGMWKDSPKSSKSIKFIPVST

[3] = biological target: T2, Vasopressin V1a receptor; test: Antagonist activity at human V1A receptor expressed in HEK cells assessed as inhibition of AVP-induced intracellular calcium flux incubated for 45 mins by Indo1-AM dye based fluorescence assay relative to AVP; format: functional, cell-based
Target sequence in this assay (P37288 whole entry): as above

[4] = biological target: T1, Oxytocin receptor; test: Displacement of DY647 from SNAP-tagged OTR receptor (unknown origin) expressed in HEK293 cells by TR-FRET assay; format: cell-based
[5] = biological target: T2, Vasopressin V1a receptor; test: Agonist activity at human V1A receptor expressed in HEK cells assessed as increase in intracellular calcium flux at 1 uM incubated for 45 mins by Indo1-AM dye based fluorescence assay relative to AVP; format: functional, cell-based
Target sequence in this assay (P37288 whole entry, looked up): as the sequence (P37288 whole entry) above

[6] = biological target: T3, Vasopressin V2 receptor (Homo sapiens, UniProt P30518); test: Displacement of DY647 from SNAP-tagged V2 receptor (unknown origin) expressed in HEK293 cells by TR-FRET assay; format: cell-based
T3 sequence (P30518 whole entry): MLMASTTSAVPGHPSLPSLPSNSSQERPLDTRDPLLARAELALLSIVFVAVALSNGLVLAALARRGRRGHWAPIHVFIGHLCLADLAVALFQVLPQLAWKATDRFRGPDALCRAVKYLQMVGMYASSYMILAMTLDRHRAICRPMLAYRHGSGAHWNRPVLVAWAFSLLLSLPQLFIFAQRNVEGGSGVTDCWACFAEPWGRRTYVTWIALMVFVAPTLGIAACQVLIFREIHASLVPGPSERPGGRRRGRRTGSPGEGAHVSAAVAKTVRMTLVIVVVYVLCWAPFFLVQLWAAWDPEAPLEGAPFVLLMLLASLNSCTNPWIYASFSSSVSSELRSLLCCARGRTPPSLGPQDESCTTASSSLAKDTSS

[7] = biological target: T4, Oxytocin receptor (Homo sapiens) (UniProt P30559); test: Agonist activity at human OTR expressed in HEK cells assessed as increase in intracellular calcium flux at 1 uM incubated for 45 mins by Indo1-AM dye based fluorescence assay relative to OT; format: functional, cell-based
T4 sequence (whole entry): T1 sequence (P30559 whole entry)

[8] = biological target: T4, Oxytocin receptor (Homo sapiens); test: Antagonist activity at human OTR receptor expressed in CHO cells assessed as inhibition of OT-induced myo-inositol 1-phosphate accumulation by IP-One assay; format: functional, cell-based
[9] = biological target: T1, Oxytocin receptor; test: Displacement of [3H]-AVP from human OXR receptor expressed in CHO cell membranes by radioligand binding assay
[10] = biological target: T2, Vasopressin V1a receptor; test: Displacement of [3H]-AVP from human V1A receptor expressed in CHO cell membranes by radioligand binding assay
Target sequence in this assay (P37288 whole entry): as the sequence (P37288 whole entry) above

[11] = biological target: T4, Oxytocin receptor (Homo sapiens); test: Agonist activity at human OTR receptor expressed in CHO cells assessed as increase in myo-inositol 1-phosphate accumulation at 1 uM by IP-One assay relative to OT; format: functional, cell-based
[12] = biological target: T3, Vasopressin V2 receptor; test: Antagonist activity at human V2 receptor expressed in CHO cells assessed as inhibition of AVP-induced cAMP accumulation by cAMP dynamic 2 assay; format: functional, cell-based
[13] = biological target: T2, Vasopressin V1a receptor; test: Agonist activity at human V1A receptor expressed in CHO cells assessed as increase in myo-inositol 1-phosphate accumulation at 1 uM by IP-One assay relative to AVP; format: functional, cell-based
Target sequence in this assay (P37288 whole entry, looked up): as the sequence (P37288 whole entry) above

[14] = biological target: T3, Vasopressin V2 receptor; test: Displacement of [3H]-AVP from human V2 receptor expressed in CHO cell membranes by radioligand binding assay
[15] = biological target: T4, Oxytocin receptor (Homo sapiens); test: Antagonist activity at human OTR receptor expressed in CHO cells assessed as inhibition of OT-induced myo-inositol 1-phosphate accumulation at 1 uM by IP-One assay relative to OT; format: functional, cell-based
[16] = biological target: T2, Vasopressin V1a receptor; test: Antagonist activity at human V1A receptor expressed in CHO cells assessed as inhibition of AVP-induced myo-inositol 1-phosphate accumulation at 1 uM by IP-One assay relative to AVP; format: functional, cell-based
Target sequence in this assay (P37288 whole entry, looked up): as the sequence (P37288 whole entry) above

[17] = species: Homo sapiens; test: Selectivity for human V1a receptor over human V2 receptor
[18] = species: Homo sapiens; test: Selectivity for human OTR receptor over human V2 receptor
[19] = biological target: T3, Vasopressin V2 receptor; test: Agonist activity at human V2 receptor expressed in CHO cells assessed as increase in cAMP accumulation by cAMP dynamic 2 assay; format: functional, cell-based
[20] = biological target: T2, Vasopressin V1a receptor; test: Antagonist activity at human V1A receptor expressed in CHO cells assessed as inhibition of AVP-induced myo-inositol 1-phosphate accumulation by IP-One assay; format: functional, cell-based
Target sequence in this assay (P37288 whole entry, looked up): as the sequence (P37288 whole entry) above

[21] = biological target: T3, Vasopressin V2 receptor; test: Displacement of [3H]-AVP from human V2 receptor expressed in human HeLa cell membranes incubated for 2 hrs by scintillation counting method
[22] = biological target: T2, Vasopressin V1a receptor; test: Displacement of [3H]-AVP from human V1A receptor expressed in human HeLa cell membranes incubated for 2 hrs by scintillation counting method
Target sequence in this assay (P37288 whole entry): as above

[23] = biological target: T3, Vasopressin V2 receptor; test: Agonist activity at human V2 receptor expressed in human HeLa cells assessed as stimulation of cAMP accumulation by radioimmunoassay; format: functional, cell-based
[24] = biological target: T5, Vasopressin V1b receptor (Homo sapiens, UniProt P47901); test: Displacement of [3H]-AVP from human V1B receptor expressed in human HeLa cell membranes incubated for 2 hrs by scintillation counting method
T5 sequence (P47901 whole entry): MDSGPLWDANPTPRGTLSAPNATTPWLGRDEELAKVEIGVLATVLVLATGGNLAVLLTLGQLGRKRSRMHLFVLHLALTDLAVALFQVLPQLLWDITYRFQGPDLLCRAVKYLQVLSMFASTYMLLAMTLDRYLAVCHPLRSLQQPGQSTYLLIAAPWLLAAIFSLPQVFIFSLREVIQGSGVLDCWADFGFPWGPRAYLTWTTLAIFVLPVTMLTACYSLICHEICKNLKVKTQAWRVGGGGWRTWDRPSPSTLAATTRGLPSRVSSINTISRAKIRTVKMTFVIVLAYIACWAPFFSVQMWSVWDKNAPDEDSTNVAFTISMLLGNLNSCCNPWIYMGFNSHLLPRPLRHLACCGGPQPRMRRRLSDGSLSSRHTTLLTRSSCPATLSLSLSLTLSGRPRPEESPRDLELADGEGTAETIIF

## COC(=O)CNC(=O)NCc1ccc(C(=O)N2Cc3cnn(C)c3Nc3ccccc32)cc1C
[1]
  pIC50: < 6.00
[2]
  pKi: < 6.00
[3]
  pIC50: 6.96
[4]
  pKi: 6.41
[5]
  Emax: 5 to 10%
[6]
  pKi: < 6.00
[7]
  Emax: 5 to 10%

## O=C(c1ccc(-c2ccccc2)cc1)N1CCCCc2ccccc21
[8]
  Kinact: 42 nM
[9]
  pKi: 7.98
[10]
  pKi: 8.64
[11]
  Emax: < 10%
[12]
  Kinact: 132 nM
[13]
  Emax: < 10%
[14]
  pKi: 7.11

## Cc1cc(C(=O)N2Cc3cnn(C)c3Nc3ccccc32)ccc1CNC(=O)NCC(=O)N(C)C
[1]
  pIC50: 6.11
[2]
  pKi: < 6.00
[3]
  pIC50: 7.30
[4]
  pKi: 6.38
[5]
  Emax: 5 to 10%
[6]
  pKi: < 6.00
[7]
  Emax: 5 to 10%

## Cc1ccn(-c2ccc(C(=O)N3CCCC(N(C)C)c4ccccc43)c(Cl)c2)n1 (stereo unspecified)
[15]
  inhibition: < 10%
[9]
  pKi: < 6.00
[16]
  inhibition: < 10%
[10]
  pKi: > 8.00
[12]
  Kinact: 126 nM
[13]
  Emax: < 10%
[17]
  Selectivity ratio: > 30
[18]
  Selectivity ratio: > 3
[14]
  pKi: 6.48

## Cc1cc(C(=O)N2Cc3cnn(C)c3Nc3ccccc32)ccc1CNC(=O)NCC(=S)N(C)C
[1]
  pIC50: 6.22
[2]
  pKi: 7.09
[3]
  pIC50: 8.05
[4]
  pKi: 7.21
[5]
  Emax: 5 to 10%
[6]
  pKi: < 6.00
[7]
  Emax: 5 to 10%

## Cc1ccn(-c2ccc(C(=O)N3CCCCc4ccccc43)cc2)n1
[8]
  Kinact: 112 nM
[9]
  pKi: 7.08
[19]
  Kact: 13 nM
[10]
  pKi: 7.47
[20]
  Kinact: 48 nM
[11]
  Emax: < 10%
[13]
  Emax: < 10%
[17]
  Selectivity ratio: 0.12
[18]
  Selectivity ratio: 0.3
[14]
  pKi: 6.55

## CC(C)NC(=O)C[C@H]1CCCN(C(=O)c2ccc(N3CCCC3)cc2Cl)c2ccccc21
[21]
  pKi: 7.04
[22]
  pKi: 6.09
[23]
  pEC50: 6.72
[24]
  pIC50: < 4.00
